Values joined by “and” are separate entries in the source; they are usually repeats but may differ in a detail not shown here. Equal entries are not always repeated.
Assays:
Format in all cases: in vivo
[1] = system: CRF-OE mice; test: Hair growth and skin pigmentation after sc injection in adult alopecic CRF-OE mice (Example 1); conditions: for Back Hair Growth Score (BK) / Skin pigmentation (Pg) score: score 0-10, individual mice
Excerpt: Adult (6-9 month old) male and female C57BL/6 mice that overexpress a rat CRF transgene (Stenzel-Poore et al., Endocrinol., 130:3378-3386, 1992) were used in this Example. […] Moreover, these animals display physical changes, such as excess abdominal fat accumulation, muscle atrophy, thin skin, and alopecia on the back and ventral abdomen area. Alopecia in these animals develops after about 7-8 weeks of age and is fully developed at about 4 months of age. This phenotype, i.e., hair loss in adulthood, is similar to that observed in some forms of human alopecia (e.g., the age-dependent balding of adult, human males (and females)).
CRF-OE mice were housed in standard plastic cages in a controlled environment (temperature=21-23° C.; humidity=30-35%; 12-hour light cycle with lights on 06:00 AM) and fed a standard rodent diet (PROLAB™ RMH 2500). Experiments were conducted in accordance with institutional guidelines.
Eight (8) male and 9 female CRF-OE mice were injected subcutaneously with 5 μg/mouse astressin B or astressin 2B, in 0.1 ml sterile water, once per day for 5 consecutive days. Similar doses of astressin B and astressin 2B previously were shown, respectively, to inhibit elevated ACTH release in adrenalectomized rats for over 12 hours (Rivier et al., J. Med. Chem., 42:3175-3182, 1999) and delay gastric emptying for over 6 hours (Rivier et al., J. Med. Chem., 45:4737-4747, 2002). […] CRF-OE mice similarly injected with saline alone were used as negative controls. Astressin B and astressin 2B peptides were synthesized as previously described (Rivier et al., J. Med. Chem., 45:4737-4747, 2002; Gulyas et al., Proc. Natl. Acad. Sci. USA, 92:10575-10579, 1995) and were diluted with sterile water immediately preceding each injection.
It appeared that hair growth (if any) typically was completed by 4 weeks post-treatment.
Hair growth in CRF-OE mice was assessed using the hair growth scale developed by Vegesna et al. […], 2002) modified to account for phenotypic differences between CRF-OE mice. Scores were made visually as well as using photographs of each mouse at a weekly interval. The degree of alopecia varied between individual CRF-OE mice; thus, the percent difference between the amount of hair present in the test area (described below) before and 4 weeks after treatment was converted to a score of 0-10. A zero score corresponded to a no change in the amount of hair in the test area and a score of 10 corresponded to full hair growth in the entire test area. The scale for monitoring hair growth in CRF-OE mice is more particularly described in Table 2.
The area was defined anteriorly by a line joining the front of the ears; posteriorly by a line joining the pelvic girdles; and laterally, between the lines projecting caudally from each ear root.
Pigmentation of the skin (also referred to as skin color) in the test region was also measured because, in C57BL/6 mice, the skin darkens at the onset of hair growth. A pigmentation score from 0-10 was given to each mouse with a score of 0 corresponding to bright pink skin color/pigment in the entire test region, a score of 1-5 corresponding to increasing intensity of a pale greyish color/pigment of skin in the test region, a score of 6-9 corresponding to increasing but non-confluent darker color/pigment of skin in the test region, and a score of 10 corresponding to black pigmentation of the entire test region. Pigmentation was measured one week after the fifth and final injection because changes (if any) in pigmentation are substantially complete by that time.

[2] = system: young CRF-OE mice; test: Prevention of hair loss in young (not-yet-alopecic) CRF-OE mice, sc injection (Example 4); conditions: for Skin pigmentation (Pg) score / Ventral Abdomen Hair Score (VAb) / Back Hair Score (BK): sc 5 μg/mouse/day x 5 days, individual mice and group mean; for Skin pigmentation (Pg) score / Ventral Abdomen Hair Score (VAb) / Induction of skin pigmentation / Hair loss / development of alopecia / Back Hair Score (BK): young CRF-OE mice; for Induction of skin pigmentation: first week post injection; for Hair loss / development of alopecia: week 4 to week 16 post treatment
Description: Alopecia in this strain fully develops in adulthood at approximately 12 weeks and older.
Young CRF-OE mice (5-6 weeks old) were treated with astressin B, astressin 2B, or vehicle (saline). Treatments were a single, daily subcutaneous injection (0.1 ml volume) of vehicle alone or 5 μg peptide per mouse for five consecutive days. Pigmentation and hair coverage scores were determined pretreatment and 1, 4, 8 and 16 weeks after the last treatment. Hair growth and pigmentation were determined as described in Examples 1 and 2.

[3] = system: hair follicles of CRF-OE mice; test: Histology of dorsal skin hair follicles (H/E) in CRF-OE mice (Example 3); conditions: for Hair follicle morphology: H/E-stained skin sections of adult CRF-OE mice; for Skin thickness or hair follicle numbers versus wild type mice: adult CRF-OE mice
Excerpt: Wild-type (C57BL/6) mice, saline-treated CRF-OE mice, CRF-OE mice treated with astressin B or astressin 2B as described in Example 1 (sc injection), and adult CRF-OE mice treated with astressin 2B as described in Example 2 (ip injection), were euthanized, Male mice were used in each case. Whole dorsal skin pieces were harvested for histology four weeks after the final sc injection of the respective peptides or two weeks after ip astressin B or saline injection.
Skin samples were fixed in 4% paraformaldehyde. Paraffin-embedded sections were processed for staining of hematoxylin/eosin and examined by light microscopy. The thickness of the epidermis plus dermis and depth of hair follicles were measured and the number of hair follicles was counted per unit (a field obtained with 10× objective) in a total of 5 units per section.

[4] = sc 5 μg/mouse/day x 5 days, adult CRF-OE mice, Week 0 (before injection), female mice
[5] = sc 5 μg/mouse/day x 5 days, adult CRF-OE mice, Week 0 (before injection), male mice
[6] = sc 5 μg/mouse/day x 5 days, adult CRF-OE mice, Week 1 after last injection, female mice
[7] = sc 5 μg/mouse/day x 5 days, adult CRF-OE mice, Week 1 after last injection, male mice
[8] = sc 5 μg/mouse/day x 5 days, adult CRF-OE mice, Week 0 (before injection)
[9] = sc 5 μg/mouse/day x 5 days, adult CRF-OE mice, Week 1 after last injection

Substance: (cyclo 30-33)[DPhe12, Nle21,38, Cml27,40, Glu30, Lys33]Ac-h/rCRF9-41 [Astressin B]
- Mice responding with increased pigmentation and hair growth ([1]; female CRF-OE mice, 8 out of 9, sc): 89%
- Mice responding with increased pigmentation and hair growth ([1]; male CRF-OE mice, 4 out of 4, sc): 100%
- Back Hair Growth Score (BK) [1, 4]: 0 (5×) and 1
- Skin pigmentation (Pg) score [1, 4]: 0
- Back Hair Growth Score (BK) [1, 5]: 0 (2×) and 1 (2×)
- Skin pigmentation (Pg) score [1, 5]: 0
- Back Hair Growth Score (BK) [1, 6]: 2 (5×) and 1
- Skin pigmentation (Pg) score [1, 6]: 2 and 8 (2×) and 10 and 0 and 7
- Back Hair Growth Score (BK) [1, 7]: 2 (2×) and 1 (2×)
- Skin pigmentation (Pg) score [1, 7]: 10 (2×) and 7 and 4
- Back Hair Growth Score (BK) ([1]; sc 5 μg/mouse/day x 5 days, adult CRF-OE mice, Week 4 after last injection, female mice): 2 and 8 (2×) and 9 (2×) and 0
- Back Hair Growth Score (BK) ([1]; sc 5 μg/mouse/day x 5 days, adult CRF-OE mice, Week 4 after last injection, male mice): 8 and 9 and 7 and 6
- Hair growth maintained post treatment ([1]; sc, adult CRF-OE mice): at least 4 weeks
- Onset of hair growth ([1]; sc, adult CRF-OE mice, FIG. 1B): as early as one week after the last injection
- Hair growth coverage ([1]; sc, range over treated adult CRF-OE mice): 20-90%
- Hair growth substantially maintained without subsequent treatment ([1]; two adult CRF-OE mice observed for an extended period, post treatment): up to 4 months
- Mice with dark pigmentation of the skin ([2]; 1 week after the last injection, fraction of mice): 5/5
- Mice with little or less hair loss (as compared to vehicle-treated subjects) ([2]; by 4, 8 and 16 weeks after the last injection, fraction of mice): 4/5
- Skin pigmentation (Pg) score ([2]; Before (Week 0)): 0
- Ventral Abdomen Hair Score (VAb) ([2]; Week 4): 10
- Induction of skin pigmentation [2]: induced skin pigmentation within one week after the final injection
- Hair loss / development of alopecia [2]: remained protected from developing full alopecia
- Hair loss / development of alopecia ([2]; listed as astressin 1): started to lose hair gradually 2 months after treatment
- Hair follicle morphology [3]: more developed and defined in structure
- Skin thickness or hair follicle numbers versus wild type mice [3]: no significant differences
- Average depth of hair follicles ([3]; treated adult CRF-OE mice (FIG. 3B, 4 weeks after last sc treatment), not significantly different from wild type): 0.42±0.05 mm

Substance: cyclo(31-34)[DPhe11, His12, CαMeLeu13,39, Nle17, Glu31, Lys34]Ac-Sau(8-40) [Astressin 2B, reference compound]
- Mice that grew significant amounts of hair ([1]; sc 5 μg/mouse/day x 5 days, adult CRF-OE mice): 0%
- Back Hair Growth Score (BK) [1, 8]: 0 (2×) and 5
- Skin pigmentation (Pg) score [1, 8]: 0
- Back Hair Growth Score (BK) [1, 9]: 0
- Skin pigmentation (Pg) score [1, 9]: 1 and 2 (2×)
- Back Hair Growth Score (BK) ([1]; sc 5 μg/mouse/day x 5 days, adult CRF-OE mice, Week 4 after last injection): 0
- Back Hair Score (BK) ([2]; Before (Week 0)): 9
- Skin pigmentation (Pg) score ([2]; Before (Week 0)): 0
- Back Hair Score (BK) ([2]; Week 1): 9
- Ventral Abdomen Hair Score (VAb) ([2]; Week 16): 2.5
- Induction of skin pigmentation [2]: moderate induction of skin pigments
- Hair loss / development of alopecia [2]: lost hair and developed full alopecia
- Hair follicle morphology [3]: did not have the normal morphology found in wild-type mice
- Skin thickness or hair follicle numbers versus wild type mice [3]: no significant differences
